How the values were obtained:
DAGLα (hDAGLα-FLAG) = DAGLα (hDAGLα-FLAG) (Homo sapiens (Human), UniProt Q9Y4D2); experiment: competitive ABPP, membrane proteome of transfected HEK293T cells; format: biochemical; details: for IC50: read-out: DAGLα IC50; for inhibition at 0.4 µM: read-out: DAGLα % inh. 0.4 μM; for inhibition at 0.0032 µM: 3.2 nM, read-out: DAGLα % inh. 3.2 nM
Procedure: (§1) Compounds 19 and 20 were tested for in vitro inhibition of DAGLα and DAGLβ as measured by competitive activity-based protein profiling (ABPP) of […] using a HT-01 probe (targets DAGLα and DAGLβ) and a FP-Rh probe (targets serine hydrolases).
(§2) Briefly, membrane proteome (1 mg/ml, 20 μL) was prepared from HEK293T cells (transiently transfected with hDAGLα-FLAG or hDAGLα-S472A-FLAG, hDAGLβ-FLAG or hDAGLβ-S443A-FLAG) as described in Example 16. The proteome was incubated at room temperature with vehicle (DMSO) or compound in 0.5 μL DMSO for 30 min. The membrane proteome sample was subsequently treated for 30 min with HT-01 probe (1 μM) or FP-Rh probe (1 μM). The reactions were quenched with 10 μL 3× Laemmli sample buffer (final concentrations: 60 mM Tris-Cl pH 6.8, 2% (w/v) SDS, 10% (v/v) glycerol, 5% (v/v) (3-mercaptoethanol, 0.01% (v/v) bromophenol blue). The samples were directly loaded and resolved on SDS page gel (10% acrylamide). The gels were scanned using a ChemiDoc MP system (Cy3 settings, 605/50 filter).
(§3) The resolved proteins were transferred from the gels to a polyvinyldifluoride membrane for Western Blotting using a Trans-Blot® Turbo (BioRad). FLAG-tagged enzymes were stained using rabbit anti-FLAG as primary antibody, and goat-anti-rabbit HRP as secondary antibody. The blot was developed in the dark using a 10 mL luminal solution, 100 μL ECL enhancer and 3 μL H2O2. Chemiluminescence was visualized using a ChemiDoc XRS (BioRad).
(§4) The percentage of DAGL activity remaining in the assayed samples was determined by measuring the integrated optical intensity of the fluorescent protein bands of the Western Blot using image lab 4.1. The relative intensity was compared to the vehicle (DMSO) treated proteins, which were set to 100%. IC50 values were determined by plotting a log(inhibitor) vs. normalized response (Variable slope) dose-response curve generated using Prism software (GraphPad).

DAGLβ (hDAGLβ-FLAG) = DAGLβ (hDAGLβ-FLAG) (Homo sapiens (Human), UniProt Q8NCG7); experiment: as above; format: biochemical; details: for IC50: read-out: DAGLβ IC50; for inhibition at 0.4 µM: read-out: DAGLβ % inh. 0.4 μM; for inhibition at 0.0032 µM: read-out: DAGLβ % inh. 3.2 nM
Procedure: as §1, §2, §3, §4

Sequence of DAGLα (hDAGLα-FLAG) (Q9Y4D2 whole entry): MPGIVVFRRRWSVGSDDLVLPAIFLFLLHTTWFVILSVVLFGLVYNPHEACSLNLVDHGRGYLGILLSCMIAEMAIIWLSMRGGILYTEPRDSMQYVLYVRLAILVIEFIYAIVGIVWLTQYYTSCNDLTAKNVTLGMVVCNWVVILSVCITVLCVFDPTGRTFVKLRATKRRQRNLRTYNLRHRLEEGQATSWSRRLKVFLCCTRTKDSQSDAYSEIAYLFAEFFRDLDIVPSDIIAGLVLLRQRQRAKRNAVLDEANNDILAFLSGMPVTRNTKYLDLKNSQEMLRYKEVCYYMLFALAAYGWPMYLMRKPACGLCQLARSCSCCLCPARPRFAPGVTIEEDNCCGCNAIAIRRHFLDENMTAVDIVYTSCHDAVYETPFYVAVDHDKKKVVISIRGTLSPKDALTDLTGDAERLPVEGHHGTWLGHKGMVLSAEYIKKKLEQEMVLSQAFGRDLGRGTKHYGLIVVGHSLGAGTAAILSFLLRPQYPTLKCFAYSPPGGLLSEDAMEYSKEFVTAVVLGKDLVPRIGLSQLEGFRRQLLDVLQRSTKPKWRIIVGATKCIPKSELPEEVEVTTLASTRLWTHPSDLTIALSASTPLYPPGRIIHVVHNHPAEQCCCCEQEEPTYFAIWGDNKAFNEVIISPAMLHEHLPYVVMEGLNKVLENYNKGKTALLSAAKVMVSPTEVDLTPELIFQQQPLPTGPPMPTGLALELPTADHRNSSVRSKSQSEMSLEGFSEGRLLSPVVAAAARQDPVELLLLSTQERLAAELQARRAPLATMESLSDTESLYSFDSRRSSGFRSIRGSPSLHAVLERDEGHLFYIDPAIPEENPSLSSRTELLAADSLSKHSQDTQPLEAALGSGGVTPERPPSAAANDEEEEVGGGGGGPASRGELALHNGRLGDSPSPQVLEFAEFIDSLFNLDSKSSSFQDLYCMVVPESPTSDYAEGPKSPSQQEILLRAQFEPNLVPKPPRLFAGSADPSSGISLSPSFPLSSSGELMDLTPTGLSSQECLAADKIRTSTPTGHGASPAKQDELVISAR
Sequence of DAGLβ (hDAGLβ-FLAG) (Q8NCG7 whole entry): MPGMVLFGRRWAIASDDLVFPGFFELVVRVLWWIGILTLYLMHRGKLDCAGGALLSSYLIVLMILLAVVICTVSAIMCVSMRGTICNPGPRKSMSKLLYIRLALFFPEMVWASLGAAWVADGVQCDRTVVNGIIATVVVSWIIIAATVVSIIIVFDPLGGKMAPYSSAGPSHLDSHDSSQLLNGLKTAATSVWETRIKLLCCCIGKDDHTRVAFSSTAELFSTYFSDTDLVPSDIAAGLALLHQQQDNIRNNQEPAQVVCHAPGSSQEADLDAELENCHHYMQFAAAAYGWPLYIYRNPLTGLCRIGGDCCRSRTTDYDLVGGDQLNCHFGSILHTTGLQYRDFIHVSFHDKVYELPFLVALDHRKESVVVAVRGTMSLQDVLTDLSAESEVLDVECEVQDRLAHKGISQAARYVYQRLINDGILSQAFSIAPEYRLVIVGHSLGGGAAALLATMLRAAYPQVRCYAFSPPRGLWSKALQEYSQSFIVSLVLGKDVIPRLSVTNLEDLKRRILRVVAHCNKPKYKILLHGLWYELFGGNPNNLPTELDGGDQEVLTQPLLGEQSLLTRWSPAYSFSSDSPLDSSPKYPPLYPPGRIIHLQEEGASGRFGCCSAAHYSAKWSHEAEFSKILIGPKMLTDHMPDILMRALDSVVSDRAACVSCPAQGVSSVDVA

## CC(C)(C)CN(CCc1ccncc1)C(=O)n1ncc(-c2ccc(OC(F)(F)F)cc2)n1 [Compound 133, N-neopentyl-N-(2-(pyridin-4-yl)ethyl)-4-(4-(trifluoromethoxy)phenyl)-2H-1,2,3-triazole-1-carboxamide]
DAGLα (hDAGLα-FLAG)
  IC50: 2000 to 10000 nM
DAGLβ (hDAGLβ-FLAG)
  IC50: 400 to 2000 nM

## COc1cc(OC)c(-c2cnn(C(=O)N3CCCCC3Cc3ccccc3)n2)c(OC)c1 (stereo not drawn) [Compound 85, (2-benzylpiperidin-1-yl)(4-(2,4,6-trimethoxyphenyl)-1H-1,2,3-triazol-2-yl)methanone]
DAGLα (hDAGLα-FLAG)
  IC50: > 10000 nM
DAGLβ (hDAGLβ-FLAG)
  IC50: 2000 to 10000 nM

## O=C(N(CCc1ccccc1)C1CC1)n1ncc(-c2ccc(OC(F)(F)F)cc2)n1 [Compound 129, N-cyclopropyl-N-phenethyl-4-(4-(trifluoromethoxy)phenyl)-2H-1,2,3-triazole-2-carboxamide]
DAGLα (hDAGLα-FLAG)
  IC50: 2000 to 10000 nM
DAGLβ (hDAGLβ-FLAG)
  IC50: 400 to 2000 nM

## O=C(N1CCCCC1Cc1ccccc1)n1cc(-c2ccc(-c3c(Cl)cncc3Cl)cc2)nn1 (stereo not drawn) [Compound 73, (2-benzylpiperidin-1-yl)(4-(4-(3,5-dichloropyridin-4-yl)phenyl)-1H-1,2,3-triazol-1-yl)methanone]
DAGLα (hDAGLα-FLAG)
  IC50: ≤ 400 nM
DAGLβ (hDAGLβ-FLAG)
  IC50: ≤ 400 nM

## Cc1cncc(C)c1-c1ccc(-c2cn(C(=O)N3CCCCC3Cc3ccccc3)nn2)cc1 (stereo not drawn) [Compound 71, (2-benzylpiperidin-1-yl)(4-(4-(3,5-dimethylpyridin-4-yl)phenyl)-1H-1,2,3-triazol-1-yl)methanone]
DAGLα (hDAGLα-FLAG)
  IC50: ≤ 400 nM
DAGLβ (hDAGLβ-FLAG)
  IC50: 400 to 2000 nM

## CCC(CC)CN(CCc1cccnc1)C(=O)n1cc(-c2ccc(OC(F)(F)F)cc2)nn1 [Compound 136, N-(2-ethylbutyl)-N-(2-(pyridin-3-yl)ethyl)-4-(4-(trifluoromethoxy)phenyl)-1H-1,2,3-triazole-1-carboxamide]
DAGLα (hDAGLα-FLAG)
  IC50: ≤ 400 nM
DAGLβ (hDAGLβ-FLAG)
  IC50: ≤ 400 nM

## CC(C)OC(=O)N1CCN(C(=O)n2cc(-c3ccc(OC(F)(F)F)cc3)nn2)C(Cc2ccccc2)C1 (stereo not drawn) [Compound 96, isopropyl 3-benzyl-4-(4-(4-(trifluoromethoxy)phenyl)-1H-1,2,3-triazole-1-carbonyl)piperazine-1-carboxylate]
DAGLα (hDAGLα-FLAG)
  inhibition at 0.4 µM: ≥ 75%
DAGLβ (hDAGLβ-FLAG)
  inhibition at 0.4 µM: 50 to 75%

## CO[C@@H]1CC[C@H](Cc2ccccc2)N(C(=O)n2cc(-c3ccc(OC(F)(F)F)cc3)nn2)C1 [Compound 116, ((2R,5R)-2-benzyl-5-methoxypiperidin-1-yl)(4-(4-(trifluoromethoxy)phenyl)-1H-1,2,3-triazol-1-yl)methanone]
DAGLα (hDAGLα-FLAG)
  inhibition at 0.0032 µM: 25 to 50%
DAGLβ (hDAGLβ-FLAG)
  inhibition at 0.0032 µM: 0 to 25%

## O=C(N1C[C@@H](OCC2CC2)CC[C@@H]1Cc1ccccc1)n1cc(-c2ccc(OC(F)(F)F)cc2)nn1 [Compound 44, ((2R,5S)-2-benzyl-5-(cyclopropylmethoxy)piperidin-1-yl)(4-(4-(trifluoromethoxy)phenyl)-1H-1,2,3-triazol-1-yl)methanone]
DAGLα (hDAGLα-FLAG)
  inhibition at 0.0032 µM: 25 to 50%
DAGLβ (hDAGLβ-FLAG)
  inhibition at 0.0032 µM: 0 to 25%

## CC(C)(C)OC(=O)N1CCN(C(=O)n2ncc(-c3ccc(OC(F)(F)F)cc3)n2)C(Cc2ccccc2)C1 (stereo not drawn) [Compound 99, tert-butyl 3-benzyl-4-(4-(4-(trifluoromethoxy)phenyl)-2H-1,2,3-triazole-2-carbonyl)piperazine-1-carboxylate]
DAGLα (hDAGLα-FLAG)
  inhibition at 0.4 µM: 0 to 25%
DAGLβ (hDAGLβ-FLAG)
  inhibition at 0.4 µM: 0 to 25%

## CCC(CC)CN(CCc1cccnc1)C(=O)n1ncc(-c2ccc(OC(F)(F)F)cc2)n1 [Compound 137]
DAGLα (hDAGLα-FLAG)
  IC50: 400 to 2000 nM
DAGLβ (hDAGLβ-FLAG)
  IC50: 400 to 2000 nM

## O=C(N1CCCCC1Cc1ccncc1)n1cc(-c2ccc(-c3ccccc3)cc2)nn1 (stereo not drawn) [Compound 66, (4-([1,1′-biphenyl]-4-yl)-1H-1,2,3-triazol-1-yl)(2-(pyridin-4-ylmethyl)piperidin-1-yl)methanone]
DAGLα (hDAGLα-FLAG)
  IC50: ≤ 400 nM
DAGLβ (hDAGLβ-FLAG)
  IC50: ≤ 400 nM

## O=C(N(CCc1ccccc1)C1CCC1)n1ncc(-c2ccc(OC(F)(F)F)cc2)n1 [Compound 128, N-cyclobutyl-N-phenethyl-4-(4-(trifluoromethoxy)phenyl)-2H-1,2,3-triazole-2-carboxamide]
DAGLα (hDAGLα-FLAG)
  IC50: 2000 to 10000 nM
DAGLβ (hDAGLβ-FLAG)
  IC50: 400 to 2000 nM

## CC(C)(C)CN(CCc1ccccc1)C(=O)n1ncc(-c2ccc(OC(F)(F)F)cc2)n1 [Compound 127, N-neopentyl-N-phenethyl-4-(4-(trifluoromethoxy)phenyl)-2H-1,2,3-triazole-2-carboxamide]
DAGLα (hDAGLα-FLAG)
  IC50: 2000 to 10000 nM
DAGLβ (hDAGLβ-FLAG)
  IC50: ≤ 400 nM

## O=C(N1CCCC[C@@H]1Cc1ccccc1)n1ncc(-c2ccc(OC(F)(F)F)cc2)n1 [Compound 104, (R)-(2-benzylpiperidin-1-yl)(4-(4-(trifluoromethoxy)phenyl)-2H-1,2,3-triazol-2-yl)methanone]
DAGLα (hDAGLα-FLAG)
  inhibition at 0.0032 µM: 0 to 25%
DAGLβ (hDAGLβ-FLAG)
  inhibition at 0.0032 µM: 0 to 25%

## O=C(N(CCc1ccccc1)CC1CC1)n1cc(-c2ccc(OC(F)(F)F)cc2)nn1 [Compound 130, N-(cyclopropylmethyl)-N-phenethyl-4-(4-(trifluoromethoxy)phenyl)-1H-1,2,3-triazole-1-carboxamide]
DAGLα (hDAGLα-FLAG)
  IC50: ≤ 400 nM
DAGLβ (hDAGLβ-FLAG)
  IC50: ≤ 400 nM

## O=C(N1CCCCC1Cc1ccccc1)n1cc(-c2ccc(-c3ccncc3)cc2)nn1 (stereo not drawn) [Compound 59, (2-benzylpiperidin-1-yl)(4-(4-(pyridin-4-yl)phenyl)-1H-1,2,3-triazol-1-yl)methanone]
DAGLα (hDAGLα-FLAG)
  IC50: 400 to 2000 nM
DAGLβ (hDAGLβ-FLAG)
  IC50: 2000 to 10000 nM

## COc1cc(OC)c(-c2cn(C(=O)N3CCCCC3Cc3ccccc3)nn2)c(OC)c1 (stereo not drawn) [Compound 84, (2-benzylpiperidin-1-yl)(4-(2,4,6-trimethoxyphenyl)-1H-1,2,3-triazol-1-yl)methanone]
DAGLα (hDAGLα-FLAG)
  IC50: > 10000 nM
DAGLβ (hDAGLβ-FLAG)
  IC50: 2000 to 10000 nM

## CO[C@H]1CC[C@H](Cc2ccccc2)N(C(=O)n2cc(-c3ccc(OC(F)(F)F)cc3)nn2)C1 [Compound 118, ((2R,5S)-2-benzyl-5-methoxypiperidin-1-yl)(4-(4-(trifluoromethoxy)phenyl)-1H-1,2,3-triazol-1-yl)methanone]
DAGLα (hDAGLα-FLAG)
  inhibition at 0.0032 µM: 25 to 50%
DAGLβ (hDAGLβ-FLAG)
  inhibition at 0.0032 µM: 0 to 25%

## CCC(CC)CN(CCc1ccncc1)C(=O)n1cc(-c2ccc(OC(F)(F)F)cc2)nn1 [Compound 53, N-(2-Ethylbutyl)-N-(2-(pyridin-4-yl)ethyl)-4-(4-(trifluoromethoxy)phenyl)-1H-1,2,3-triazole-1-carboxamide]
DAGLα (hDAGLα-FLAG)
  IC50: 400 to 2000 nM
DAGLβ (hDAGLβ-FLAG)
  IC50: ≤ 400 nM

## CNC(=O)c1cc(OC)c(-c2ccc(-c3cn(C(=O)N4CCCCC4Cc4ccccc4)nn3)cc2)c(OC)c1 (stereo not drawn) [Compound 79, 4′-(1-(2-benzylpiperidine-1-carbonyl)-1H-1,2,3-triazol-4-yl)-2,6-dimethoxy-N-methyl-[1,1′-biphenyl]-4-carboxamide]
DAGLα (hDAGLα-FLAG)
  IC50: 400 to 2000 nM
DAGLβ (hDAGLβ-FLAG)
  IC50: > 10000 nM

## CO[C@@H]1CC[C@H](Cc2ccccc2)N(C(=O)n2ncc(-c3ccc(OC(F)(F)F)cc3)n2)C1 [Compound 117, ((2R,5R)-2-benzyl-5-methoxypiperidin-1-yl)(4-(4-(trifluoromethoxy)phenyl)-2H-1,2,3-triazol-1-yl)methanone]
DAGLα (hDAGLα-FLAG)
  inhibition at 0.0032 µM: 0 to 25%
DAGLβ (hDAGLβ-FLAG)
  inhibition at 0.0032 µM: 0 to 25%

## O=C(N1C[C@H](O)C=C[C@@H]1Cc1ccccc1)n1ncc(-c2ccc(OC(F)(F)F)cc2)n1 [Compound 113, ((3R,6S)-6-benzyl-3-hydroxy-3,6-dihydropyridin-1(2H)-yl)(4-(4-(trifluoromethoxy)phenyl)-2H-1,2,3-triazol-2-yl)methanone]
DAGLα (hDAGLα-FLAG)
  inhibition at 0.0032 µM: 0 to 25%
DAGLβ (hDAGLβ-FLAG)
  inhibition at 0.0032 µM: 0 to 25%

## CC(C)(C)OC(=O)N1CCN(C(=O)n2ncc(-c3ccc(OC(F)(F)F)cc3)n2)C(c2ccccc2)C1 (stereo not drawn) [Compound 23, tert-butyl 3-phenyl-4-(4-(4-(trifluoromethoxy)phenyl)-2H-1,2,3-triazole-2-carbonyl)piperazine-1-carboxylate]
DAGLα (hDAGLα-FLAG); 0.8 μM (stated under the cell), read-out: DAGLα % inh. 0.8 μM
  inhibition at 0.8 µM: 0 to 25%
DAGLβ (hDAGLβ-FLAG); 0.8 μM (stated under the cell), read-out: DAGLβ % inh. 0.8 μM
  inhibition at 0.8 µM: 0 to 25%

## COc1cccc(OC)c1-c1ccc(-c2cn(C(=O)N3CCCCC3Cc3ccccc3)nn2)cc1 (stereo not drawn) [Compound 63, (2-benzylpiperidin-1-yl)(4-(2′,6′-dimethoxy-[1,1′-biphenyl]-4-yl)-1H-1,2,3-triazol-1-yl)methanone]
DAGLα (hDAGLα-FLAG)
  IC50: ≤ 400 nM
DAGLβ (hDAGLβ-FLAG)
  IC50: 2000 to 10000 nM

## O=C(N1CCCCC1Cc1ccccc1)n1cc(-c2ccc(CN3CCCC3)cc2)nn1 (stereo not drawn) [Compound 93, (2-benzylpiperidin-1-yl)(4-(4-(pyrrolidin-1-ylmethyl)phenyl)-1H-1,2,3-triazol-1-yl)methanone]
DAGLα (hDAGLα-FLAG)
  IC50: 2000 to 10000 nM
DAGLβ (hDAGLβ-FLAG)
  IC50: > 10000 nM

## O=C(N(CCc1ccccc1)C1CCC1)n1cc(-c2ccc(OC(F)(F)F)cc2)nn1 [Compound 124, N-cyclobutyl-N-phenethyl-4-(4-(trifluoromethoxy)phenyl)-1H-1,2,3-triazole-1-carboxamide]
DAGLα (hDAGLα-FLAG)
  IC50: ≤ 400 nM
DAGLβ (hDAGLβ-FLAG)
  IC50: ≤ 400 nM

— patent US10583137B2, “Triazole DAGLα inhibitors” (THE SCRIPPS RESEARCH INSTITUTE, priority 2015, dated 2020)
